Results taken from patent US9718792B2, “Isoxazoline hydroxamic acid derivatives as LpxC inhibitors” (priority 2014, dated 2017).
≈ marks a conversion by molar mass, not a printed value. Like-named read-outs stand apart in the source and are kept apart here.

Columns and labels:
P. aeruginosa LpxC = P. aeruginosa LpxC (Pseudomonas aeruginosa (strain ATCC 15692 / DSM 22644 / CIP 104116 / JCM 14847 / LMG 12228 / 1C / PRS 101 / PAO1), UniProt P47205); assay: P. aeruginosa LpxC Inhibition Assay; format: biochemical; conditions: 2 μM substrate, LC-MS/MS
Source text: The P. aeruginosa LpxC protein is produced according to the general method of Hyland et al (Journal of Bacteriology 1997 179, 2029-2037: Cloning, expression and purification of UDP-3-O-acyl-GIcNAc deacetylase from Pseudomonas aeruginosa: a metalloamidase of the lipid A biosynthesis pathway). The LC-MS/MS method for quantitation of LpxC product was developed using an Agilent 1200 Capillary HPLC system coupled to an Applied Biosystems MDS Sciex 4000QTRAP mass spectrometer. Both instruments are controlled using the Applied Biosystems MDS Sciex Analyst software. LpxC reaction product (UDP-3-O—(R-3-hydroxyacyl)-glucosamine) was produced by hydrolysis of LpxC substrate catalyzed by P.a. LpxC and purified using reversed phase chromatography on a Phenomenex Luna C18(2) 4.6×50 mm column. An LpxC product calibration curve was generated to evaluate the sensitivity and dynamic range of the LC-MS/MS method. Briefly, compounds are pre-incubated with 1 nM P. aeruginosa LpxC for 30 min. at room temperature. Reactions are initiated by the addition of 2 μM UDP-3-O—(R-3-hydroxydecanoyl)-GIcNAc. Reactions are conducted in a 384-well plate with a total volume of 50 μL in each well containing 50 mM Sodium phosphate pH 7.5, 0.005% Trition X-100 for 20 min at room temperature. After quenching with 1.8% HOAc (5 μL of a 20% HOAc added to each well), reaction mixtures are analyzed using the LC-MS/MS method and peak areas are transformed into product concentration using a LpxC product calibration curve. Total activity (0% inhibition control) is obtained from reactions with no inhibitors and 100% inhibition control is the background using quenched samples before reaction starts. For IC50 determinations, peak areas are converted to percent inhibition in Microsoft Excel. Percent inhibition values are plotted vs. log compound concentration using XLfit. Data is fit to the four-parameter logistic equation using the non-linear regression algorithm in XLfit to return the IC50 and hill slope values.

P. aeruginosa PAO1 = assay: Susceptibility Testing (MIC, broth microdilution); format: cell-based, Pseudomonas aeruginosa; conditions: Pseudomonas aeruginosa, PAO1, 20 h, P. aeruginosa PAO1, broth microdilution, 20 hours; read-out: PAO1 MIC
Method: Bacterial isolates were cultivated from −70° C. frozen stocks by two consecutive overnight passages at 35° C. in ambient air on 5% blood agar (Remel, Lenexa, Kans.). Quality control and P. aeruginosa ATCC 27853) is from the American Type Culture Collection (ATCC; Rockville, Md.) and PAO1 was received from Dr. K. Poole.
Minimal Inhibitory Concentrations (MICs) were determined by the broth microdilution method in accordance with Clinical and Laboratories Institute (CLSI) guidelines. In brief, fresh bacterial overnight cultures were resuspended in sterile saline, adjusted to a 0.5 McFarland turbidity standard and then diluted […] in cation adjusted Mueller-Hinton Broth II (MHB; Remel BBL) to yield a final inoculum of approximately 5×10^5 colony-forming units (CFU)/mL. Two-fold serial dilutions of compounds were prepared in 100% dimethyl sulfoxide (DMSO) at 100-fold the highest final assay concentration; the resulting dilution series of compounds were diluted 1:10 with sterile water. Ten μl of the drug dilution series in 10% DMSO was transferred to microtiter wells and 90 μl of bacterial suspension was inoculated into the wells. All inoculated microdilution trays were incubated in ambient air at […] for 20 hours. Following incubation, assay plates were read in a microtiter plate reader at 600 nm and visually inspected to confirm the MIC endpoint well with the OD value. The lowest concentration of the compound that prevented visible growth was recorded as the MIC. Performance of the assay was monitored by testing ciprofloxacin against laboratory quality control strains in accordance with guidelines of the CLSI.

[1] = 1 nM P. aeruginosa LpxC, read-out: PA LpxC IC50

| IC50 (P. aeruginosa LpxC; [1]) | MIC (P. aeruginosa PAO1) | SMILES | IC50 (P. aeruginosa LpxC; PA LpxC IC50, 1 nM P. aeruginosa LpxC) |
| --- | --- | --- | --- |
| 2 nM | 16 µg/mL (≈ 34.7 µM) | CC(C)(O)c1cc(-c2ccc(C3=NO[C@@H](C[C@](C)(C(=O)NO)S(C)(=O)=O)C3)cc2)ccn1 [Compound 81, (R)—N-hydroxy-3-((R)-3-(4-(2-(2-hydroxypropan-2-yl)pyridin-4-yl)phenyl)-4,5-dihydroisoxazol-5-yl)-2-methyl-2-(methylsulfonyl)propanamide] |  |
| < 0.5 nM | 0.25 µg/mL (≈ 0.51 µM) | COC[C@H](O)Cc1ccc(-c2ccc(C3=NO[C@@H](C[C@](C)(C(=O)NO)S(C)(=O)=O)C3)cc2)cc1 [Compound 60, (R)—N-hydroxy-3-((R)-3-(4′-((R)-2-hydroxy-3-methoxypropyl)-[1,1′-biphenyl]-4-yl)-4,5-dihydroisoxazol-5-yl)-2-methyl-2-(methylsulfonyl)propanamide] |  |
| < 0.5 nM | 0.5 µg/mL (≈ 1.04 µM) | CC(C)(O)c1ccc(-c2ccc(C3=NO[C@@H](C[C@](C)(C(=O)NO)S(C)(=O)=O)C3)cc2F)cc1 [Compound 110, (R)-3-((R)-3-(2-fluoro-4′-(2-hydroxypropan-2-yl)-[1,1′-biphenyl]-4-yl)-4,5-dihydroisoxazol-5-yl)-N-hydroxy-2-methyl-2-(methylsulfonyl)propanamide] |  |
| 0.5 nM | 0.125 µg/mL (≈ 0.272 µM) | C[C@@](C[C@H]1CC(c2ccc(-c3ccc(CC#N)cc3)c(F)c2)=NO1)(C(=O)NO)S(C)(=O)=O [Compound 104, (R)-3-((R)-3-(4′-(cyanomethyl)-2-fluoro-[1,1′-biphenyl]-4-yl)-4,5-dihydroisoxazol-5-yl)-N-hydroxy-2-methyl-2-(methylsulfonyl)propanamide] |  |
| < 0.5 nM | 0.25 µg/mL (≈ 0.541 µM) | C[C@@](C[C@H]1CC(c2ccc(-c3ccc([C@H](O)CO)cc3)cc2)=NO1)(C(=O)NO)S(C)(=O)=O [Compound 94, (R)-3-((R)-3-(4′-((S)-1,2-dihydroxyethyl)-[1,1′-biphenyl]-4-yl)-4,5-dihydroisoxazol-5-yl)-N-hydroxy-2-methyl-2-(methylsulfonyl)propanamide] |  |
| < 0.5 nM | 0.35 µg/mL (≈ 0.838 µM) | Cc1ccc(-c2ccc(C3=NO[C@@H](C[C@](C)(C(=O)NO)S(C)(=O)=O)C3)cc2)cn1 [Compound 67, (R)—N-hydroxy-2-methyl-3-((R)-3-(4-(6-methylpyridin-3-yl)phenyl)-4,5-dihydroisoxazol-5-yl)-2-(methylsulfonyl) propanamide] |  |
| 0.5 nM | 0.125 µg/mL (≈ 0.289 µM) | C[C@@](C[C@H]1CC(c2ccc(-c3ccc(CO)cc3)cc2)=NO1)(C(=O)NO)S(C)(=O)=O [Compound 41, (R)—N-hydroxy-3-((R)-3-(4′-(hydroxymethyl)-[1,1′-biphenyl]-4-yl)-4,5-dihydroisoxazol-5-yl)-2-methyl-2-(methylsulfonyl)] |  |
| < 0.5 nM | 0.35 µg/mL (≈ 0.713 µM) | CO[C@@H](CO)Cc1ccc(-c2ccc(C3=NO[C@@H](C[C@](C)(C(=O)NO)S(C)(=O)=O)C3)cc2)cc1 [Compound 86, (R)—N-hydroxy-3-((R)-3-(4′-((R)-3-hydroxy-2-methoxypropyl)-[1,1′-biphenyl]-4-yl)-4,5-dihydroisoxazol-5-yl)-2-methyl-2-(methylsulfonyl)propanamide] |  |
| < 0.5 nM | 0.5 µg/mL (≈ 1.05 µM) | Cc1cc(C2=NO[C@@H](C[C@](C)(C(=O)NO)S(C)(=O)=O)C2)ccc1-c1ccc(C[C@@H](C)O)cc1 [Compound 121, (R)—N-hydroxy-3-((R)-3-(4′-((R)-2-hydroxypropyl)-2-methyl-[1,1′-biphenyl]-4-yl)-4,5-dihydroisoxazol-5-yl)-2-methyl-2-(methylsulfonyl)propanamide] |  |
| 0.6 nM | 0.16 µg/mL (≈ 0.347 µM) | C[C@@H](O)Cc1ccc(-c2ccc(C3=NO[C@@H](C[C@](C)(C(=O)NO)S(C)(=O)=O)C3)cc2)cc1 [Compound 45, (R)—N-hydroxy-3-((R)-3-(4′-((R)-2-hydroxypropyl)-[1,1′-biphenyl]-4-yl)-4,5-dihydroisoxazol-5-yl)-2-methyl-2-(methylsulfonyl)] |  |
| 0.9 nM | 0.4 µg/mL (≈ 1.03 µM) | CCSc1ccc(C2=NO[C@@H](C[C@](C)(C(=O)NO)S(C)(=O)=O)C2)cc1 [Compound 32, (R)-3-((R)-3-(4-(ethylthio)phenyl)-4,5-dihydroisoxazol-5-yl)-N-hydroxy-2-methyl-2-(methylsulfonyl)propanamide] |  |

Further lines, the compound ahead of its results:

| SMILES | IC50 (P. aeruginosa LpxC; [1]) | MIC (P. aeruginosa PAO1) | IC50 (P. aeruginosa LpxC; PA LpxC IC50, 1 nM P. aeruginosa LpxC) |
| --- | --- | --- | --- |
| CC(CC1CC(c2ccc(C#CC3CC3)cc2F)=NO1)(C(=O)NO)S(C)(=O)=O (single isomer, unassigned) [Compound 17-B, 3-(3-(4-(cyclopropylethynyl)-2-fluorophenyl)-4,5-dihydroisoxazol-5-yl)-N-hydroxy-2-methyl-2-(methylsulfonyl)propanamide] | < 0.5 nM | 0.5 µg/mL (≈ 1.22 µM) |  |
| C/C=C/c1ccc(C2=NO[C@@H](C[C@](C)(C(=O)NO)S(C)(=O)=O)C2)cc1 [Compound 24, (R)—N-hydroxy-2-methyl-2-(methylsulfonyl)-3-((R)-3-(4-((E)-prop-1-en-1-yl)phenyl)-4,5-dihydroisoxazol-5-yl)propanamide] | 0.8 nM | 0.5 µg/mL (≈ 1.36 µM) |  |
| C[C@@](C[C@H]1CC(c2ccc(-c3ccncc3F)cc2F)=NO1)(C(=O)NO)S(C)(=O)=O [Compound 119, (R)-3-((R)-3-(2-fluoro-4-(3-fluoropyridin-4-yl)phenyl)-4,5-dihydroisoxazol-5-yl)-N-hydroxy-2-methyl-2-(methylsulfonyl)propanamide] | < 0.5 nM | 0.71 µg/mL (≈ 1.62 µM) |  |
| CC#Cc1ccc(C2=NO[C@@H](C[C@](C)(C(=O)NO)S(C)(=O)=O)C2)cc1 [Compound 2-A, (R)—N-hydroxy-2-methyl-2-(methylsulfonyl)-3-((R)-3-(4-(prop-1-yn-1-yl)phenyl)-4,5-dihydroisoxazol-5-yl)propanamide] | 0.8 nM | 0.25 µg/mL (≈ 0.686 µM) |  |
| C[C@@](C[C@H]1CC(c2ccc(-c3c(F)cncc3F)cc2)=NO1)(C(=O)NO)S(C)(=O)=O [Compound 100] | < 0.5 nM | 0.25 µg/mL (≈ 0.569 µM) |  |
| Cn1ccc(-c2ccc(C3=NO[C@@H](C[C@](C)(C(=O)NO)S(C)(=O)=O)C3)cc2F)cc1=O [Compound 108, (R)-3-((R)-3-(3-fluoro-4-(1-methyl-2-oxo-1,2-dihydropyridin-4-yl)phenyl)-4,5-dihydroisoxazol-5-yl)-N-hydroxy-2-methyl-2-(methylsulfonyl)propanamide] |  | 8 µg/mL (≈ 17.7 µM) | 2 nM |
| C[C@@](C[C@H]1CC(c2ccc(C#CC3CC3)cc2)=NO1)(C(=O)NO)S(C)(=O)=O [Compound 6-A, (R)-3-((R)-3-(4-(cyclopropylethynyl)phenyl)-4,5-dihydroisoxazol-5-yl)-N-hydroxy-2-methyl-2-(methylsulfonyl)propanamide] | 0.7 nM | 0.25 µg/mL (≈ 0.64 µM) |  |
| CCC#Cc1ccc(C2=NOC(CC(C)(C(=O)NO)S(C)(=O)=O)C2)cc1 (single isomer, unassigned) [Compound 8-B, 3-(3-(4-(but-1-yn-1-yl)phenyl)-4,5-dihydroisoxazol-5-yl)-N-hydroxy-2-methyl-2-(methylsulfonyl)propanamide] | 0.5 nM | 1 µg/mL (≈ 2.64 µM) |  |
| C[C@@H](O)Cc1cc(F)c(-c2ccc(C3=NO[C@@H](C[C@](C)(C(=O)NO)S(C)(=O)=O)C3)cc2F)c(F)c1 [Compound 116, (R)—N-hydroxy-2-methyl-2-(methylsulfonyl)-3-((R)-3-(2,2′,6′-trifluoro-4′-((R)-2-hydroxypropyl)-[1,1′-biphenyl]-4-yl)-4,5-dihydroisoxazol-5-yl) propanamide] | < 0.5 nM | 0.5 µg/mL (≈ 0.972 µM) |  |
